# Tests used:
# Type in all cases: physicochemical
# [1] = Competitive slurry experiments at different water activities
# Protocol: Competitive slurry experiments at different water activities at 25° C. and at 50° C. were performed. Competitive slurries of a (1:1) physical mixture of Modifications HB and B at different water activities were also performed.
# Hygroscopicity by DVS = test: Hygroscopicity by DVS
# Source text: Crystalline form HB is a hydrated form of (S)-3-amino-4-(5-(4-((5-chloro-3-fluoropyridin-2-yl)oxy)phenyl)-2H-tetrazol-2-yl)butanoic acid.
# [2] = Stability in solvent: equilibration of Form HB with solvent, residue analysed by XRPD; settings: slurry experiments
# Protocol: Equilibrations with solvent were carried out to investigate the relative stability of form HB in solvent. 50 mg of Form HB is equilibrated with 1 mL solvent for 24 h (or 7 days, or 28 days) in a water bath at 25° C. or for 7 days at 50° C. The solutions are filtered and dried for 10 minutes in air. The resulting solid is analyzed by XRPD.
# Various solvent were investigated: acetone, acetonitrile, dichloromethane, dioxane, ethanol, heptane, methanol, THF, acetone/water mixtures from 10/90 to 90/10, acetonitrile/water mixtures from 10/90 to 90/10, dioxane/water mixtures from 10/90 to 90/10 and ethanol/water mixture from 10/90 to 90/10, tetrahydrofuran/water (50/50) and 1-propanol/water (70/30).
# [3] = Solid state stability in bulk (HPLC degradation products, XRPD)
# Protocol: The chemical and physical stability of form B and form HB was investigated, exposing the individual forms to high humidity at temperatures ranging from 25-80° C.
# The degradation products were analyzed by HPLC and the sample was analyzed by XPRD to detect any changes to the solid state.
# [4] = Solubility in aqueous buffers and bio-relevant media
structure (smiles),measurement,setting,value
"N[C@@H](CC(=O)O)Cn1nnc(-c2ccc(Oc3ncc(Cl)cc3F)cc2)n1 (mixture of isomers) [Physical mixture of HB and B (1:1), (S)-3-amino-4-(5-(4-((5-chloro-3-fluoropyridin-2-yl)oxy)phenyl)-2H-tetrazol-2-yl)butanoic acid]",Solid form after competitive slurry,"[1]; 25 Degrees Celsius, Acetonitrile, aw 0.00, 2 days",Form B
same,Solid form after competitive slurry,"[1]; 25 Degrees Celsius, Acetonitrile, aw 0.00, 5 days",Form B
same,Solid form after competitive slurry,"[1]; 25 Degrees Celsius, Acetonitrile/water (83:17), aw 0.93, 2 days",Forms HB + B
same,Solid form after competitive slurry,"[1]; 25 Degrees Celsius, Acetonitrile/water (83:17), aw 0.93, 5 days",Forms HB + B
same,Solid form after competitive slurry,"[1]; 25 Degrees Celsius, Acetonitrile/water (88:12), aw 0.90, 2 days",Forms HB + B
same,Solid form after competitive slurry,"[1]; 25 Degrees Celsius, Acetonitrile/water (88:12), aw 0.90, 5 days",Forms HB + B
same,Solid form after competitive slurry,"[1]; 25 Degrees Celsius, Acetonitrile/water (92:8), aw 0.82, 2 days",Forms HB + B
same,Solid form after competitive slurry,"[1]; 25 Degrees Celsius, Acetonitrile/water (92:8), aw 0.82, 5 days",Forms HB + B
same,Solid form after competitive slurry,"[1]; 25 Degrees Celsius, Acetonitrile/water (97:3), aw 0.50, 2 days",Forms HB + B
same,Solid form after competitive slurry,"[1]; 25 Degrees Celsius, Acetonitrile/water (97:3), aw 0.50, 5 days",Form B
same,Solid form after competitive slurry,"[1]; 25 Degrees Celsius, Acetonitrile/water (98:2), aw 0.44, 2 days",Form B
same,Solid form after competitive slurry,"[1]; 25 Degrees Celsius, Acetonitrile/water (98:2), aw 0.44, 5 days",Form B
same,Solid form after competitive slurry,"[1]; 25 Degrees Celsius, Methanol, aw 0.00, 2 days",Form B
same,Solid form after competitive slurry,"[1]; 25 Degrees Celsius, Methanol, aw 0.00, 5 days",Form B
same,Solid form after competitive slurry,"[1]; 25 Degrees Celsius, Methanol/water (22:78), aw 0.90, 2 days",Forms HB + B
same,Solid form after competitive slurry,"[1]; 25 Degrees Celsius, Methanol/water (22:78), aw 0.90, 5 days",Forms HB + B
same,Solid form after competitive slurry,"[1]; 25 Degrees Celsius, Methanol/water (57:43), aw 0.70, 2 days",Forms HB + B
same,Solid form after competitive slurry,"[1]; 25 Degrees Celsius, Methanol/water (57:43), aw 0.70, 5 days",Forms HB + B
same,Solid form after competitive slurry,"[1]; 25 Degrees Celsius, Methanol/water (77:23), aw 0.50, 2 days",Form B
same,Solid form after competitive slurry,"[1]; 25 Degrees Celsius, Methanol/water (77:23), aw 0.50, 5 days",Form B
same,Solid form after competitive slurry,"[1]; 25 Degrees Celsius, Methanol/water (89:11), aw 0.30, 2 days",Form B
same,Solid form after competitive slurry,"[1]; 25 Degrees Celsius, Methanol/water (89:11), aw 0.30, 5 days",Form B
same,Solid form after competitive slurry,"[1]; 25 Degrees Celsius, Methanol/water (97:3), aw 0.11, 2 days",Form B
same,Solid form after competitive slurry,"[1]; 25 Degrees Celsius, Methanol/water (97:3), aw 0.11, 5 days",Form B
same,Solid form after competitive slurry,"[1]; 25 Degrees Celsius, Water, aw 1.00, 2 days",Forms HB + B
same,Solid form after competitive slurry,"[1]; 25 Degrees Celsius, Water, aw 1.00, 5 days",Forms HB + B
same,Water activity (aw) at which the mixture converted into pure Form B,[1]; 25° C.,≤ 0.5
same,Solid form after competitive slurry,"[1]; 25° C., water activities above aw 0.5",remained unchanged
same,Solid form after competitive slurry,"[1]; 50 degrees, Acetonitrile, aw 0.00, 2 days",Form B
same,Solid form after competitive slurry,"[1]; 50 degrees, Acetonitrile, aw 0.00, 5 days",Form B
same,Solid form after competitive slurry,"[1]; 50 degrees, Acetonitrile/water (83:17), aw 0.90, 2 days",Forms B + HB
same,Solid form after competitive slurry,"[1]; 50 degrees, Acetonitrile/water (83:17), aw 0.90, 5 days",Form B
same,Solid form after competitive slurry,"[1]; 50 degrees, Acetonitrile/water (88:12), aw 0.86, 2 days",Form B
same,Solid form after competitive slurry,"[1]; 50 degrees, Acetonitrile/water (88:12), aw 0.86, 5 days",Form B
same,Solid form after competitive slurry,"[1]; 50 degrees, Acetonitrile/water (92:8), aw 0.77, 2 days",Form B
same,Solid form after competitive slurry,"[1]; 50 degrees, Acetonitrile/water (92:8), aw 0.77, 5 days",Form B
same,Solid form after competitive slurry,"[1]; 50 degrees, Acetonitrile/water (97:3), aw 0.46, 2 days",Form B
same,Solid form after competitive slurry,"[1]; 50 degrees, Acetonitrile/water (97:3), aw 0.46, 5 days",Form B
same,Solid form after competitive slurry,"[1]; 50 degrees, Acetonitrile/water (98:2), aw 0.34, 2 days",Form B
same,Solid form after competitive slurry,"[1]; 50 degrees, Acetonitrile/water (98:2), aw 0.34, 5 days",Form B
same,Solid form after competitive slurry,"[1]; 50 degrees, Methanol, aw 0.00, 2 days",Form B
same,Solid form after competitive slurry,"[1]; 50 degrees, Methanol, aw 0.00, 5 days",Form B
same,Solid form after competitive slurry,"[1]; 50 degrees, Methanol/water (22:78), aw 0.90, 2 days",Forms HB + B
same,Solid form after competitive slurry,"[1]; 50 degrees, Methanol/water (22:78), aw 0.90, 5 days",Forms B + HB
same,Solid form after competitive slurry,"[1]; 50 degrees, Methanol/water (57:43), aw 0.71, 2 days",Form B
same,Solid form after competitive slurry,"[1]; 50 degrees, Methanol/water (57:43), aw 0.71, 5 days",Form B
same,Solid form after competitive slurry,"[1]; 50 degrees, Methanol/water (77:23), aw 0.51, 2 days",Form B
same,Solid form after competitive slurry,"[1]; 50 degrees, Methanol/water (77:23), aw 0.51, 5 days",Form B
same,Solid form after competitive slurry,"[1]; 50 degrees, Methanol/water (89:11), aw 0.31, 2 days",Form B
same,Solid form after competitive slurry,"[1]; 50 degrees, Methanol/water (89:11), aw 0.31, 5 days",Form B
same,Solid form after competitive slurry,"[1]; 50 degrees, Methanol/water (97:3), aw 0.21, 2 days",Form B
same,Solid form after competitive slurry,"[1]; 50 degrees, Methanol/water (97:3), aw 0.21, 5 days",Form B
same,Solid form after competitive slurry,"[1]; 50 degrees, Water, aw 1.00, 2 days",Forms B + HB
same,Solid form after competitive slurry,"[1]; 50 degrees, Water, aw 1.00, 5 days",Forms HB + B
same,Maximum water activity (aw) for transformation to Form B,[1]; 50° C.,≤ 0.7
"N[C@@H](CC(=O)O)Cn1nnc(-c2ccc(Oc3ncc(Cl)cc3F)cc2)n1 [Form B, (S)-3-amino-4-(5-(4-((5-chloro-3-fluoropyridin-2-yl)oxy)phenyl)-2H-tetrazol-2-yl)butanoic acid]",Maximum water uptake,Hygroscopicity by DVS; 25° C. at 90% RH by DVS,less than 0.7%
same,Hygroscopicity,Hygroscopicity by DVS; by DVS,slightly hygroscopic
same,Form conversion through slurry,[2],does not transform into other form
same,Hydrate formation,[3]; 1 week at 40° C./90% RH,no hydrate formation was detected
same,Stability in bulk,[3]; 1 week at 40° C./90% RH,stable
same,Chemical and physical stability in bulk,"[3]; test conditions 1-5: 1 week, tight or open container, room temperature to 80° C., up to 92% RH",displayed good stability and did not convert at all
same,solubility,[4]; FaSSIF-V2 (pH=6.6),70 µg/mL
same,solubility,[4]; FeSSIF-V2 (pH=5.9),180 µg/mL
same,solubility,"[4]; aqueous buffers, aqueous buffer, pH values of 4 to 7",50 µg/mL

# Reference: patent US11993582B2, “Crystalline forms of a LTA4H inhibitor” (Novartis AG, priority 2018, dated 2024)
